This is an account of results in patent US12201796B2, “Devices configured to provide treatment at an Abreu brain thermal tunnel” (Brain Tunnelgenix Technologies Corp., priority 2014, dated 2025).

Data set [1] is described as follows: comparison of caffeine absorption into the blood stream from a patch on ABTT terminus and a patch on an upper arm. In kind it is in vivo. The method, then:
One experimental technique used by Applicant to verify the efficacy of the systems, apparatuses, devices, processes, and methods disclosed herein was to compare absorption of a chemical into the blood stream. The chosen chemical was caffeine, and a comparison was made between distribution of caffeine in the body from a 15 mm by 15 mm patch placed on ABTT terminus 10 and a 15 mm by 15 mm patch placed on an upper arm. Caffeine concentration was measured in the same location on the body. […] As is evident from FIG. 106, the peak concentration of caffeine from the patch placed on the arm occurred five hours after placement of the patch, which peak concentration from the patch placed on ABTT terminus 10 was about 30 minutes after placement of the patch. […] Other compounds tested show similar results. […] In addition, it should be noted that use of a known patch would be disadvantageous if applied to ABTT terminus 10, because a lesser quantity of a drug is required to achieve the same results. […] In order to achieve the same effect at ABTT terminus 10 as application of a conventional patch in a conventional application, only about ⅔ the quantity of a drug is required for the same effect at ABTT terminus 10.

For data set [2] the following is noted: in vivo; cited from earlier work.
Data set [3] can be described thus: transdermal melatonin patch on the skin of ABTT target area, research setting. The conditions noted are these: patch with water, propylene glycol, lauric acid, hydroxypropylcellulose; non-rate-limiting membrane; contact area 1.0 cm^2.
Excerpt: As a solution to this problem, MEL was applied transdermally on the skin of ABTT target area 10 using a patch that contained, in a solvent formulation, water, propylene glycol, lauric acid, and hydroxypropylcellulose, and also comprised a non-rate-limiting membrane designed to have active contact with an area 1.0 cm^2.

Molecules are shown by their SMILES.

For `Cn1c(=O)c2c(ncn2C)n(C)c1=O` [caffeine], the “time of peak concentration of caffeine after placement of the patch” value is on record as “about 30 minutes” in data set [1] (15 mm by 15 mm patch placed on ABTT terminus, FIG. 106 curve 1416) and “five” in data set [1] (15 mm by 15 mm patch placed on upper arm, FIG. 106 curve 1414). For the same compound, the “peak concentration from patch on ABTT terminus relative to peak concentration from patch on upper arm” value in data set [1] (15 mm by 15 mm patches, concentration measured in the same location on the body) is “more than twice as high”.
Consider `COc1ccc2[nH]cc(CCNC(C)=O)c2c1` [melatonin], for which the elimination half-life entry in data set [2] is reported as “short”. Further, in data set [3], the “therapeutic effect of patch delivering melatonin through the skin of ABTT target area” value is reported as “shown to provide an intended therapeutic effect”.
